Laboratory results published in patent US8575170B2, “Flurbiprofen analogs and methods of use in treating cancer” (The Regents of the Unversity of Colorado, a body corporate, priority 2010, dated 2013).

Key:
MSK921 = assay: MTT cell viability, MSK921; format: cell-based; settings: Head and neck cancer cell line MSK921
Method: (§1) The ability of the flurbiprofen analog compounds of the invention to inhibit cancer cell growth and survival (viability) in a variety of cancer lines was examined in a standard MTT assay for cell viability, as detailed in Example 2.
(§2) A similar study was conducted on 14 […] cancer cell lines, identified in Table 2.
(§3) Cell growth and survival following treatment with N—[(S)-2-Fluoro-α-methyl-4-biphenylacetyl]-[L-(4-phenylphenyl)alanine]-N-(2,2,6,6-tetramethyl-4-piperidinyl)amide (GCBH-110=B1031; (S)-Fmba-L-Bip-Atmp) were measured by a rapid colorimetric assay based on the tetrazolium salt MTT (3-(4,5-dimethylthiazol-2-yl)-2,5-diphenyl tetrazolium bromide) (Mosmann, J. Immunol. Methods 65: 55-63, 1983, with minor modifications).
(§4) Briefly, approximately 1,000-5,000 cancer cells from 15 different cancer cells lines were plated in 100 μL of growth medium in 96-well flat-bottomed microtiter plates. Cells were incubated overnight to allow recovery. Compounds to be tested were added to the cells in triplicate in a range of concentrations and the cells were incubated at 37° C., 5% CO2, with 100% humidity. Control cells were treated in the same way without antagonists. […] Plates were incubated for 4 days, allowing sufficient time for cell replication and compound-induced cell death to occur. […] Absorbance was immediately determined using a scanning multiwell plate reader. […]

SHP77 = assay: MTT cell viability, SHP77; format: cell-based; settings: SCLC lung cell line SHP77, 4 days incubation
Method: as §1
(§5) The studies reported in Tables 1-3 above were carried out by incubating the cells in the test compound for four days, under standard cell-culture conditions, and measuring cell survival on day 5 (see Example 2).
as §3
(§6) Briefly, approximately 1,000-5,000 cancer cells from 15 different cancer cells lines were plated in 100 μL of growth medium in 96-well flat-bottomed microtiter plates. Cells were incubated overnight to allow recovery. Compounds to be tested were added to the cells in triplicate in a range of concentrations and the cells were incubated at 37° C., 5% CO2, with 100% humidity. Control cells were treated in the same way without antagonists. […] Absorbance was immediately determined using a scanning multiwell plate reader.

CaLu6 = assay: MTT cell viability, CaLu6; format: cell-based; settings: Homo sapiens, Calu-6, 96 h; Adenocarcinoma lung cell line CaLu6; 4 days incubation
Method: as §1, §5, §3, §6

H322C = assay: MTT cell viability, H322C; format: cell-based; settings: 96 h; Adenocarcinoma lung cell line H322C; 4 days incubation
Method: as §1, §5, §3, §6

SW1990 = assay: MTT cell viability, SW1990; format: cell-based; settings: Homo sapiens, 96 h; Pancreatic cancer cells SW1990; 4 days incubation
Excerpt: as §1
(§7) Similar results were obtained for the effect of the B1031 compound on the 14 pancreatic tumor cells lines shown in Table 3 below, where the dose dependent effect of the compound on survival of the pancreatic cancer cell lines is shown in FIG. 5.
as §5, §3
(§8) Briefly, approximately 1,000-5,000 cancer cells from 15 different cancer cells lines were plated in 100 μL of growth medium in 96-well flat-bottomed microtiter plates. Cells were incubated overnight to allow recovery. […] Absorbance was immediately determined using a scanning multiwell plate reader.

UMSCC22A = assay: MTT cell viability, UMSCC22A; format: cell-based; settings: Head and neck cancer cell line UMSCC22A
Method: as §1, §2, §3, §4

H3255 = assay: MTT cell viability, H3255; format: cell-based; settings: Adenocarcinoma lung cell line H3255, 4 days incubation
Method: as §1, §5, §3, §6

Capan-2 = assay: MTT cell viability, Capan-2; format: cell-based; settings: Homo sapiens, 96 h; Pancreatic cancer cells Capan-2; 4 days incubation
Excerpt: as §1, §7, §5, §3, §8

H2122 cells = assay: Cell cycle phase distribution in H2122 cells; format: cell-based; settings: six concentrations, 24, 48 and 72 hours, FIG. 10
Method: FIG. 10 is a plot showing the percentages of H122 cells G1, S, and G2 cycle at […], and 72 hours, as a function of B1031 concentration in the cell medium.
FIG. 10 provides an explanation of the time-dependent IC50 values observed in FIG. 7, and insight into the mechanism by which the compounds of the invention exert their anti-cancer effect. In the study shown in FIG. 10, H2122 cells were cultured in the presence of one of the six concentrations of the B1031 compound, as indicated in the figure. At time periods 24, 48, and 72 hours after incubation with the compound, cells from each of the six cultures (having increasing concentrations of the compound), were examined for percent cells in G1, S, or G2 cell phase.

H441 = assay: MTT cell viability, H441; format: cell-based; settings: Homo sapiens, NCI-H441, 96 h; Adenocarcinoma lung cell line H441; 4 days incubation
Method: as §1, §5, §3, §6

L33 = assay: MTT cell viability, L33; format: cell-based; settings: Pancreatic cancer cell, 96 h; Pancreatic cancer cells L33; 4 days incubation
Excerpt: as §1, §7, §5, §3, §8

H460b = assay: MTT cell viability, H460b; format: cell-based; settings: 96 h; Large Cell lung cell line H460b; 4 days incubation
Method: as §1, §5, §3, §6

[1] = system: H2122 lung carcinoma solid tumor xenograft; assay: H2122 lung carcinoma xenograft in nude mice; format: in vivo, athymic nude mice; settings: 5 mg/kg daily intraperitoneal, from day 7 after implantation, over the 25 days of treatment, FIG. 11
Method: The efficacy of the treatment method was examined for both lung carcinoma-cell tumors and pancreatic-cell tumors implanted in athymic mice, according to the method detailed in Example 3. In the first study, mice injected with lung-carcinoma cells were treated, seven days after cancer-cell implantation, by daily injection of 5 mg/kg body weight of one of three different flurbiprofen analog compounds: B1005 (GCBH 104); B1020 (GCBH 108) and B1031 (GCBH 110). Tumor size was measured by calipers at the days indicated in FIG. 11, with final tumor weight and volume being determined by extracting the tumor from the sacrificed animals.
Compounds having high in vitro cytotoxic activity were tested against implanted tumors in vivo. In one study, athymic nude mice were implanted subcutaneously with suspensions of approximately 2 million H2122 lung carcinoma cells, in Matrigel suspension. On the seventh day after tumor implantation, groups of 5 mice bearing implants were injected intraperitoneally with the compounds being tested at 5 mg/kg/every day; control animals were injected with an equal volume of isotonic saline. […] Tumor size was measured with a caliper three times per week. Tumor volume was calculated by the formula: Volume (cc)=3.14×(length)×(width)^2/6
At autopsy, tumors were removed and weighed. Tumor inhibition was calculated on both weight and measurement basis.

WM375 = assay: MTT cell viability, WM375; format: cell-based; settings: Melanoma cell line WM375
Excerpt: as §1
The results for the several cell lines above were also consistent with IC50 values measured for two melanoma cell lines shown in Table 4 below.
as §3, §6

HADF-2 = assay: MTT cell viability, HADF-2; format: cell-based; settings: Pancreatic cancer cell, 96 h; Pancreatic cancer cells HADF-2; 4 days incubation
Excerpt: as §1, §7, §5, §3, §8

How did the IC50 (MSK921) turn out when `C[C@H](C(=O)N[C@@H](Cc1ccc(-c2ccccc2)cc1)C(=O)NC1CC(C)(C)NC(C)(C)C1)c1ccc(-c2ccccc2)c(F)c1` [GCBH-110, N—[(S)-2-Fluoro-α-methyl-4-biphenylacetyl]-[L-(4-phenylphenyl)alanine]-N-(2,2,6,6-tetramethyl-4-piperidinyl)amide] was run?
Its IC50 is 770 nM.

What about the IC50 (SHP77; Homo sapiens, SHP77, 96 h) of the same molecule?
The IC50 was 500 nM.

What about the IC50 (SHP77; listed as B1031) of the same molecule?
Its IC50 is 530 nM.

What about the IC50 (CaLu6) of the same molecule?
The IC50 was 340 nM.

What about the IC50 (H322C) of the same molecule?
The IC50 was 450 nM.

And the IC50 (SW1990)?
The IC50 was 1500 nM.

What about the IC50 (UMSCC22A) of the same molecule?
Its IC50 is 430 nM.

What about the IC50 (H3255; listed as B1031) of the same molecule?
Its IC50 is 900 nM.

What about the IC50 (H3255; Homo sapiens, NCI-H3255, 96 h) of the same molecule?
Its IC50 is 910 nM.

And the IC50 (Capan-2)?
The IC50 was 1500 nM.

And the “percent cells in G1, S, or G2 cell phase” value (H2122 cells)?
Its value is “marked shift of the cell populations away from the S and G2 phases to the G1 phase”.

And the IC50 (H441)?
The IC50 was 1600 nM.

What about the IC50 (L33) of the same molecule?
The IC50 was 700 nM.

And the IC50 (H460b)?
The IC50 was 400 nM.

What about the “inhibition of growth of the lung carcinoma cell line H2122 tumor” value [1] of the same molecule?
Its value is 76%.

What about the IC50 (WM375) of the same molecule?
Its IC50 is 280 nM.

What about the IC50 (HADF-2) of the same molecule?
The IC50 was 700 nM.
